The results in this text go back to patent US11945798B2, “Substituted aminopyridine compounds as EGFR inhibitors” (YUHAN CORPORATION, priority 2021, dated 2024).

The target of one test is EGFR del19/T790M/C797S (Homo sapiens, UniProt P00533, C797S/DEL746-750/T790M). The test is described as follows: Biochemical EGFR kinase assay (Lance Ultra TR-FRET), del19/T790M/C797S. How it is done:
(§1) Biochemical EGFR kinase assays were conducted using Lance Ultra time-resolved fluorescence resonance energy transfer (TR-FRET) technology from Perkin-Elmer. Compounds of the invention were initially diluted to 20 mM in 100% DMSO for storage and made into kinase buffer solution to create a compound concentration ranging from 0.003 μM and 10 μM.
(§2) Each kinase reactions were incubated at room temperature for 1 hour and then stopped by the addition of 4 μL of stop solution (10 mM EDTA). The specific Europium-labeled-anti-phosphopeptide antibody (PerkinElmer, AD0069) diluted in LANCE detection buffer was then added to a final concentration of 2 nM. After 60 minutes incubation at room temperature the LANCE signal was measured on an EnVision Multilabel Reader (Perkin-Elmer). Excitation wavelength was set at 320 nm and emission monitored at 615 nm (donor) and 665 nm (acceptor). The IC50 values were determined using GraphPad prism software (GraphPad Software, Inc., San Diego, CA, USA).

The next test deals with EGFR L858R/C797S (Homo sapiens, UniProt P00533, C797S/L858R). The test is described as follows: Biochemical EGFR kinase assay (Lance Ultra TR-FRET), L858R/C797S. How it is done:
as §1, §2
In general terms: In TR-FRET formats the signal depends on donor and acceptor labels being close together.

A further test deals with EGFR wildtype (WT) (Homo sapiens, UniProt P00533). The test is described as follows: Biochemical EGFR kinase assay (Lance Ultra TR-FRET), wildtype. As to the method: as §1, §2
The target in another test is EGFR del19/C797S (Homo sapiens, UniProt P00533, C797S/DEL746-750). Description: Biochemical EGFR kinase assay (Lance Ultra TR-FRET), del19/C797S. As to the method:
as §1, §2

A further test deals with EGFR L858R/T790M/C797S (Homo sapiens, UniProt P00533, C797S/L858R/T790M). The test is described as follows: Biochemical EGFR kinase assay (Lance Ultra TR-FRET), L858R/T790M/C797S. How it is done:
as §1, §2

Setting [1] is: read-out: IC50 L858R/C797S (nM) 100 μM ATP, 100 μM ATP.
The mark [2] stands for this setting: read-out: IC50 WT (nM) 100 μM ATP, 100 μM ATP.
Where [3] appears, read: read-out: IC50 del19/C797S (nM) 100 μM ATP, 100 μM ATP.
Setting [4] is: Km ATP, read-out: IC50 del19/T790M/C797S (nM) Km ATP.
Where [5] appears, read: Km ATP, read-out: IC50 WT (nM) Km ATP.
The mark [6] stands for this setting: Km ATP, read-out: IC50 del19/C797S (nM) Km ATP.
Where [7] appears, read: Km ATP, read-out: IC50 L858R/T790M/C797S (nM) Km ATP.

Read-outs that look alike come from different tables or passages of the source.

With “6-((2-(1-(Cyclopropylsulfonyl)-1H-pyrazol-4-yl)pyrimidin-4-yl)amino)-N-(2-fluoroethyl)-4-(((1R,3S)-3-(hydroxymethyl)cyclopentyl)amino)nicotinamide [Example 75]”, the IC50 at EGFR del19/T790M/C797S (read-out: IC50 del19/T790M/C797S (nM) 100 μM ATP, 100 μM ATP) is 0.7 nM; at EGFR L858R/C797S (setting [1]) it was 30.5 nM; on EGFR wildtype (WT) (setting [2]) it was greater than 10000 nM; at EGFR del19/C797S (setting [3]), 14.5 nM.
Regarding `O=C(c1cnc(Nc2ccnc(-c3cnn(S(=O)(=O)C4CC4)c3)n2)cc1NCCCCF)C1CC1` [Example 4, Cyclopropyl(6-((2-(1-(cyclopropylsulfonyl)-1H-pyrazol-4-yl)pyrimidin-4-yl)amino)-4-((4-fluorobutyl)amino)pyridin-3-yl)methanone], the IC50 at EGFR del19/T790M/C797S (setting [4]) was determined as 1.3 nM; on EGFR wildtype (WT) (setting [5]), 2400 nM; on EGFR del19/C797S (setting [6]) it was 83.6 nM; on EGFR L858R/T790M/C797S (setting [7]), 11.6 nM.
Turning to `O=C(c1cnc(Nc2ccnc(-c3cnn(S(=O)(=O)C4CC4)c3)n2)cc1NCCCC(F)F)C1CC1` [Example 5, Cyclopropyl(6-((2-(1-(cyclopropylsulfonyl)-1H-pyrazol-4-yl)pyrimidin-4-yl)amino)-4-((4,4-difluorobutyl)amino)pyridin-3-yl)methanone], the IC50 at EGFR del19/T790M/C797S (setting [4]) turned out to be 1.8 nM; on EGFR wildtype (WT) (setting [5]), 2970 nM; on EGFR del19/C797S (setting [6]) it was 132 nM; at EGFR L858R/T790M/C797S (setting [7]), 18 nM.
Turning to `O=C(c1cnc(Nc2ccnc(-c3cnn(S(=O)(=O)C4CC4)c3)n2)cc1NCCC1CCOC1)C1CC1` (stereo not drawn) [Example 6, Cyclopropyl(6-((2-(1-(cyclopropylsulfonyl)-1H-pyrazol-4-yl)pyrimidin-4-yl)amino)-4-((2-(tetrahydrofuran-3-yl)ethyl)amino)pyridin-3-yl)methanone], the IC50 at EGFR del19/T790M/C797S (setting [4]) was found to be 0.6 nM; at EGFR wildtype (WT) (setting [5]), 890 nM; on EGFR del19/C797S (setting [6]), 78 nM; on EGFR L858R/T790M/C797S (setting [7]), 4.5 nM.
The matching figures for `C[C@H](CCO)Nc1cc(Nc2ccnc(-c3cnn(S(=O)(=O)C4CC4)c3)n2)ncc1C(=O)C1CC1` [Example 7, (R)-Cyclopropyl(6-((2-(1-(cyclopropylsulfonyl)-1H-pyrazol-4-yl)pyrimidin-4-yl)amino)-4-((4-hydroxybutan-2-yl)amino)pyridin-3-yl)methanone]: 0.5 nM, 426 nM, 49.2 nM and 2.7 nM.
The matching figures for `O=C(c1cnc(Nc2ccnc(-c3cnn(S(=O)(=O)C4CC4)c3)n2)cc1NCC1CCCCO1)C1CC1` (stereo not drawn) [Example 10, Cyclopropyl(6-((2-(1-(cyclopropylsulfonyl)-1H-pyrazol-4-yl)pyrimidin-4-yl)amino)-4-(((tetrahydro-2H-pyran-2-yl)methyl)amino)pyridin-3-yl)methanone]: 2.1 nM, 1170 nM, 553 nM and 13.7 nM.
With `C[C@@H](O)CCNc1cc(Nc2ccnc(-c3cnn(S(=O)(=O)C4CC4)c3)n2)ncc1C(=O)C1CC1` [Example 11, (R)-Cyclopropyl(6-((2-(1-(cyclopropylsulfonyl)-1H-pyrazol-4-yl)pyrimidin-4-yl)amino)-4-((3-hydroxybutyl)amino)pyridin-3-yl)methanone], the IC50 on EGFR del19/T790M/C797S (setting [4]) was 0.4 nM; on EGFR wildtype (WT) (setting [5]) it was 188 nM; on EGFR del19/C797S (setting [6]), 58.9 nM; on EGFR L858R/T790M/C797S (setting [7]), 2.3 nM.
The matching figures for `CC(O)C(C)(C)Nc1cc(Nc2ccnc(-c3cnn(S(=O)(=O)C4CC4)c3)n2)ncc1C(=O)C1CC1` (stereo not drawn) [Example 12, Cyclopropyl(6-((2-(1-(cyclopropylsulfonyl)-1H-pyrazol-4-yl)pyrimidin-4-yl)amino)-4-((3-hydroxy-2-methylbutan-2-yl)amino)pyridin-3-yl)methanone]: 0.4 nM, 228 nM, 58.2 nM and 0.6 nM.
For `CN(C)CCNc1cc(Nc2ccnc(-c3cnn(S(=O)(=O)C4CC4)c3)n2)ncc1C(=O)C1CC1` [Example 14, Cyclopropyl(6-((2-(1-(cyclopropylsulfonyl)-1H-pyrazol-4-yl)pyrimidin-4-yl)amino)-4-((2-(dimethylamino)ethyl)amino)pyridin-3-yl)methanone], in that order: 4.7 nM, 3400 nM, 459 nM and 31.9 nM.
The matching figures for `CN(C)Cc1ccc(CNc2cc(Nc3ccnc(-c4cnn(S(=O)(=O)C5CC5)c4)n3)ncc2C(=O)C2CC2)cn1` [Example 19, Cyclopropyl(6-((2-(1-(cyclopropylsulfonyl)-1H-pyrazol-4-yl)pyrimidin-4-yl)amino)-4-(((6-((dimethylamino)methyl)pyridin-3-yl)methyl)amino)pyridin-3-yl)methanone]: 3.1 nM, 682 nM, 159 nM and 3.8 nM.
As for `CC(C)Oc1cc(Nc2ccnc(-c3cnn(S(=O)(=O)C4CC4)c3)n2)ncc1NC(=O)C1CC1` [Example 42, N-(6-((2-(1-(Cyclopropylsulfonyl)-1H-pyrazol-4-yl)pyrimidin-4-yl)amino)-4-isopropoxypyridin-3-yl)cyclopropanecarboxamide], the IC50 on EGFR del19/T790M/C797S (setting [4]) was 1 nM; on EGFR wildtype (WT) (setting [5]), 123 nM; at EGFR del19/C797S (setting [6]), 213 nM; at EGFR L858R/T790M/C797S (setting [7]), 10.5 nM.
The matching figures for `CCCNc1cc(Nc2ccnc(-c3cnn(S(=O)(=O)C4CC4)c3)n2)ncc1C(C)=O` [Example 45, 1-(6-((2-(1-(Cyclopropylsulfonyl)-1H-pyrazol-4-yl)pyrimidin-4-yl)amino)-4-(propylamino)pyridin-3-yl)ethan-1-one]: 0.9 nM, 751 nM, 205 nM and 3.1 nM.
Take `CN(C)CCNC1CCC(Nc2cc(Nc3ccnc(-c4cnn(S(=O)(=O)C5CC5)c4)n3)ncc2C(=O)C2CC2)CC1` (stereo not drawn) [Example 53, Cyclopropyl(6-((2-(1-(cyclopropylsulfonyl)-1H-pyrazol-4-yl)pyrimidin-4-yl)amino)-4-((4-((2-(dimethylamino)ethyl)amino)cyclohexyl)amino)pyridin-3-yl)methanone]: the IC50 is 0.5 nM against EGFR del19/T790M/C797S (IC50 del19/T790M/C797S (nM) 100 μM ATP, 100 μM ATP); 1900 nM on EGFR wildtype (WT) (IC50 WT (nM) 100 μM ATP, 100 μM ATP); 1.8 nM on EGFR del19/C797S (IC50 del19/C797S (nM) 100 μM ATP, 100 μM ATP); 0.5 nM against EGFR L858R/T790M/C797S (IC50 L858R/T790M/C797S (nM) 100 μM ATP, 100 μM ATP).
Turning to `CN(C)C[C@H]1CC[C@H](CNc2cc(Nc3ccnc(-c4cnn(CC5CC5)c4)n3)ncc2C(=O)C2CC2)CC1` [Example 61, Cyclopropyl(6-((2-(1-(cyclopropylmethyl)-1H-pyrazol-4-yl)pyrimidin-4-yl)amino)-4-((((1r,4r)-4-((dimethylamino)methyl)cyclohexyl)methyl)amino)pyridin-3-yl)methanone], the IC50 on EGFR del19/T790M/C797S (setting [4]) is 5.7 nM; on EGFR L858R/C797S (Km ATP, read-out: IC50 L858R/C797S (nM) Km ATP) it was 123 nM; on EGFR wildtype (WT) (setting [5]), 415 nM.
With `CC(=O)c1cnc(Nc2ccnc(-c3cnn(S(=O)(=O)C4CC4)c3)n2)cc1OC[C@H]1CC[C@H](CN(C)C)CC1` [Example 65, 1-(6-((2-(1-(Cyclopropylsulfonyl)-1H-pyrazol-4-yl)pyrimidin-4-yl)amino)-4-(((1r,4r)-4-((dimethylamino)methyl)cyclohexyl)methoxy)pyridin-3-yl)ethan-1-one], the IC50 on EGFR del19/T790M/C797S (setting [4]) came out at 0.7 nM; on EGFR wildtype (WT) (setting [5]), 389 nM; at EGFR del19/C797S (setting [6]), 52.5 nM; at EGFR L858R/T790M/C797S (setting [7]), 5.8 nM.
Turning to `CC(NCC1CCC(CNc2cc(Nc3ccnc(-c4cnn(S(=O)(=O)C5CC5)c4)n3)ncc2C(=O)C2CC2)CC1)C(F)F` (stereo not drawn) [Example 73, Cyclopropyl(6-((2-(1-(cyclopropylsulfonyl)-1H-pyrazol-4-yl)pyrimidin-4-yl)amino)-4-((((1r,4r)-4-(((1,1-difluoropropan-2-yl)amino)methyl)cyclohexyl)methyl)amino)pyridin-3-yl)methanone], the IC50 at EGFR del19/T790M/C797S (setting [4]) stood at 17.4 nM; on EGFR wildtype (WT) (setting [5]) it was 691 nM; at EGFR del19/C797S (setting [6]) it was 16.1 nM; on EGFR L858R/T790M/C797S (setting [7]), 3.1 nM.
Turning to “Cyclopropyl(6-((2-(1-(cyclopropylsulfonyl)-1H-pyrazol-4-yl)pyrimidin-4-yl)amino)-4-((4-((4-methylpiperazin-1-yl)amino)cyclohexyl)amino)pyridin-3-yl)methanone [Example 54]”, the values for the IC50 at EGFR L858R/C797S (setting [1]), on EGFR wildtype (WT) (setting [2]) and at EGFR del19/C797S (setting [3]) were 33.8 nM, greater than 10000 nM and 66.1 nM, respectively.
